The nature of data set [1]: Inhibition of wild type HIV-1 clade B NL4-3 Gag polyprotein SP1 infected in human MT4 cells. The class given is cell-based. The note with it: Human immunodeficiency virus 1, clade B NL4-3, MT4.
A short description of data set [2]: Inhibition of bevirimat-resistant HIV1 clade B NL4-3 CA-SP1 Q369H mutant infected in human MT4 cells. Type of data set: cell-based. The note with it: Human immunodeficiency virus 1, clade B NL4-3, MT4.
Data set [3] can be described thus: Inhibition of bevirimat-resistant HIV1 clade B NL4-3 CA-SP1 V370A mutant infected in human MT4 cells. The note with it: Human immunodeficiency virus 1, clade B NL4-3, MT4. Type of data set: cell-based.
The nature of data set [4]: Inhibition of bevirimat-resistant HIV1 clade B NL4-3 CA-SP1 T371A mutant infected in human MT4 cells. To be noted: Human immunodeficiency virus 1, clade B NL4-3, MT4. The class given is cell-based.
Data set [5] can be described thus: Inhibition of bevirimat-resistant HIV-1 clade B isolate ASJM108 Gag V370A mutant infected in human PBMC after 7 days by scintillation counting method. To be noted: Human immunodeficiency virus 1, clade B isolate ASJM108, 168 h.
The nature of data set [6]: Inhibition of bevirimat-resistant HIV-1 clade B isolate CC1/85 CA-SP1 V370A mutant infected in human PBMC measured after 7 days by scintillation counting method. The note with it: Human immunodeficiency virus 1, clade B isolate CC1/85, 168 h.
Data set [7] is described as follows: Inhibition of bevirimat-resistant HIV-1 clade A isolate I-2496 V370A mutant infected in human PBMC after 7 days by scintillation counting method. The note with it: Human immunodeficiency virus 1, clade A isolate I-2496, 168 h.
The test system of data set [8] is Human immunodeficiency virus 1. The experiment in a line: Ratio of compound effect in presence of 40% human serum to compound effect in absence of serum for antiviral activity against HIV1 by cell based assay. Type of data set: functional.
Data set [9] concerns Human immunodeficiency virus 1. The experiment in a line: Antiviral activity against HIV1 isolate 96THNP1538 infected in human PBMC. Type of data set: functional. The note with it: Human immunodeficiency virus 1, isolate 96THNP1538.
Data set [10] deals with Human immunodeficiency virus 1. The experiment in a line: Antiviral activity against HIV1 isolate 91BR014 infected in human PBMC. Type of data set: functional. To be noted: Human immunodeficiency virus 1, isolate 91BR014.
The subject of data set [11] is Human immunodeficiency virus 1. The data set can be described thus: Antiviral activity against HIV1 isolate 00KEKR1008 infected in human PBMC. The class given is functional. The note with it: Human immunodeficiency virus 1, isolate 00KEKR1008.
Data set [12] concerns Human immunodeficiency virus 1. The experiment in a line: Antiviral activity against HIV1 isolate 96USNG031 infected in human PBMC. Type of data set: functional. To be noted: Human immunodeficiency virus 1, isolate 96USNG031.
Data set [13] concerns Human immunodeficiency virus 1. The experiment in a line: Antiviral activity against HIV1 isolate 01ET188 infected in human PBMC. Type of data set: functional. The note with it: Human immunodeficiency virus 1, isolate 01ET188.
Data set [14] can be described thus: Cytotoxicity against human MT4 cells. Type of data set: cell-based.
Data set [15] has as its system Human immunodeficiency virus 1. The experiment in a line: Inhibition of HIV1 Gag CA-SP1 cleavage infected in human PBMC at 0.0001 to 10 uM measured after 8 days post infection by Western blot analysis.

Structures are written as SMILES. The source made the active and inactive calls. The calls are words filed in the database; no cut-off is given here.

As to `CC(C)C1=C2[C@H]3CC[C@@H]4[C@@]5(C)CC[C@H](OC(=O)CC(C)(C)C(=O)O)C(C)(C)[C@@H]5CC[C@@]4(C)[C@]3(C)CC[C@@]2(C(=O)C(=O)NC2(c3ccc(Cl)cc3)CC2)CC1=O`, the IC50 in data set [1] worked out at 17 nM; in data set [2] it was 23 nM; in [3], 25 nM; in data set [4], 8 nM; in [5] it was 51 nM; in data set [6] it was 5 nM. The IC50 in [7] was 14 nM; in data set [9], > 60 nM; in data set [10], > 60 nM; in data set [11] it was > 60 nM; in [12], > 60 nM; in [13], > 60 nM. Moreover, the Ratio in data set [8] amounted to 9.7. Moreover, the CC50 in [14] is > 10000 nM. In addition, the inhibition result in [15] is “Active”.

The values above are taken from ChEMBL document CHEMBL4024732, “Discovery of a novel and potent class of anti-HIV-1 maturation inhibitors with improved virology profile against gag polymorphisms” (Bioorg Med Chem Lett, 2017).
